Laboratory results as given in US20180296530A1, “METHOD FOR TREATING ATOPIC DERMATITIS” (priority 2015, published 2018).

Experiments:
[1] = test system: serum total IgE and allergen-specific IgE; assay: Clinical trial: serum total and allergen-specific IgE (ImmunoCAP); type: in vivo, human
[2] = test system: DNCB-induced AD mouse model; assay: Example 5: histological examination of skin (H&E, toluidine blue, anti-CD3); type: in vivo, Balb/c mice; conditions: for Cumulative histological scores: positive control 14.8 ± 2.4; for Hyperplasia, epidermis and follicular epithelium, slight to moderate/severe: incidence / Hyperplasia, sebaceous gland and hair follicle, dermis and subcutis, slight to moderate: incidence / Inflammation, neutrophil, lymphocyte and mast cell, epidermis, dermis and subcutis, minimal to severe/high: incidence / Infundibular hyperkeratosis, hair follicle, dermis, minimal to slight: incidence / Necrosis, epidermis, slight: incidence / Pustule, epidermis, slight: incidence / Serocellular crust/parakeratosis, epidermis, slight: incidence / Vacuolization, epidermis, minimal to slight: incidence: skin, Day 20, 5 mice
Protocol: (§1) The protocol for establishing an AD mouse model in this Example was modified from those described previously. Briefly, referring to FIG. 4, DNCB-induced AD mouse model was prepared by the repeated applications of 20 μL of 1% DNCB in acetone/olive oil (4:1) to the outer and inner surfaces of mouse ears and 100 μL of the same solution to the shaved back skin once on days 1, 2, and 3. Mice of Control group were treated with the identical volumes of vehicle.
The DNCB-sensitized mice were randomly assigned to one of three groups: DNCB (Positive control), DNCB+3% topical melatonin (Treatment: low-dose), DNCB+5% topical melatonin (Treatment: high-dose). Each group (including Control group) consisted of 5 mice. From days 9 to 19, sensitized mice were challenged by applying 0.5% DNCB to the skin surfaces. For the two groups treated with topical melatonin groups, 0.3 mg of topical melatonin ointment (3% or 5% melatonin in Vaseline) was given together with DNCB during the challenge period. For DNCB group, 0.3 mg of Vaseline was given together with DNCB during the challenge period. For Control group, 0.3 mg of Vaseline was given from days 9 to 19. This experiment was ended at Day 20.
At the end of the experiment (Day 20), all the experimental animals were subjected to euthanization by carbon dioxide and the skin samples were collected for subsequent immunological and histological examinations. The skin of each mouse were fixed with 10% neutral-buffered formalin, and embedded in paraffin. Then, 4-μm-thick sections were cut and transferred onto slides. Deparaffinized skin sections were stained with hematoxylin and eosin (H&E) before they were examined at 200× magnification for evaluation of edema and polymorphonuclear leukocytes (PMN) number. To detect mast cell infiltration, deparaffinized skin sections were stained with toluidine blue. Polyclonal rabbit antibody against CD3 was used to stain T cells. The numbers of mast cells and T cells per 10 high power fields (HPF) were counted.
Further, degree of histopathological lesions of skin from each mouse was graded from one to five depending on severity: 1=minimal (<1%); 2=slight (1-25%); 3=moderate (26-50%); 4=moderate/severe (51-75%); and 5=severe/high (76-100%).

[3] = test system: IL-4; assay: Example 5: dorsal skin IL-4 mRNA by RT-PCR; type: in vivo, Balb/c mice
Protocol: as §1
(§2) The DNCB-sensitized mice were randomly assigned to one of three groups: DNCB (Positive control), DNCB+3% topical melatonin (Treatment: low-dose), DNCB+5% topical melatonin (Treatment: high-dose). Each group (including Control group) consisted of 5 mice. From days 9 to 19, sensitized mice were challenged by applying 0.5% DNCB to the skin surfaces. For the two groups treated with topical melatonin groups, 0.3 mg of topical melatonin ointment (3% or 5% melatonin in Vaseline) was given together with DNCB during the challenge period. […]
(§3) Blood and dorsal skin of each mouse were collected on the last day of the experiment (Day 20) and stored at −80° C. until use. Serum IgE levels were measured using the ImmunoCAP fluorescence enzyme immunoassay (Phadia AB, Sweden) according to the manufacturer's instructions. The dorsal skin mRNA expression of the cytokines IL-4, IL-13, and IL-17 were measured by RT-PCR.

[4] = test system: IL-17; assay: Example 5: dorsal skin IL-17 mRNA by RT-PCR; type: in vivo, Balb/c mice
Protocol: as §1, §2, §3

[5] = test system: serum total IgE; assay: Example 6: serum IgE in DNCB-induced AD mouse model; type: in vivo, Balb/c mice
Protocol: as §3
The protocol for establishing an AD mouse model in this Example was modified from those described previously. Briefly, referring to FIG. 12, DNCB-induced AD mouse model was prepared by the repeated applications of 20 μL of 1% DNCB in acetone/olive oil (4:1) to the outer and inner surfaces of mouse ears and 100 μL of the same solution to the shaved back skin once on days 1 and 4. Mice of Control group were treated with the identical volumes of vehicle.
The DNCB-sensitized mice were randomly assigned to one of four groups: DNCB, DNCB+0.1% topical melatonin, DNCB+1% topical melatonin, DNCB+8% topical melatonin. Each group (including Control group) consisted of 3 mice. On days 8 and 11, sensitized mice was challenged by applying 0.2% DNCB to the skin surfaces. For the three groups treated with topical melatonin groups, 0.1 mg of topical melatonin cream was given twice a day from day 1 to day 14. […]
The serum IgE levels were measured on the last day of the experiment (Day 15) in the same manner as those described in Example 5.

[6] = Treatment (high-dose): DNCB+5% topical melatonin, mean±SD, graded one to five
[7] = Treatment (high-dose): DNCB+5% topical melatonin
[8] = Treatment (low-dose): DNCB+3% topical melatonin, mean±SD, graded one to five
[9] = Treatment (low-dose): DNCB+3% topical melatonin
[10] = 5% melatonin treatment compared with 3% melatonin treatment

COc1ccc2[nH]cc(CCNC(C)=O)c2c1 [Melatonin, melatonin]
IgE level, After ([1]; after oral melatonin 3 mg/d at bedtime for 4 weeks, mean, serum): 2483.8 kU/L
IgE level, Difference ([1]; after vs before oral melatonin 3 mg/d, 4 weeks, mean): 108.4 kU/L
IgE level, Before ([1]; melatonin phase, before treatment, mean, serum): 2337.2 kU/L
effect on allergen-specific IgE levels to Derp, Derf, or S aureus enterotoxins A or B ([1]; melatonin vs placebo, P>0.05): no significant difference
effect on total IgE level ([1]; melatonin vs placebo, P>0.05): no significant difference
IgE level, Difference of Treatment Effect From the Linear Mixed-Effects Model, Mean ([1]; melatonin vs placebo, adjusted for age and sex): −113.6 kU/L
pathology scoring vs DNCB group ([2]; 3% melatonin, p=0.04): significant improvement
number of anti-CD3 positive cells per 10 HPF ([2]; 3% topical melatonin compared with DNCB group, p=0.03): significantly reduced
pathology scoring vs DNCB group ([2]; 5% melatonin, p=0.02): significant improvement
number of anti-CD3 positive cells per 10 HPF ([2]; 5% topical melatonin compared with DNCB group, p=0.0007): significantly reduced
Hyperplasia, epidermis and follicular epithelium, slight to moderate/severe: lesion score [2, 6]: 2.0 ± 0.0
Hyperplasia, sebaceous gland and hair follicle, dermis and subcutis, slight to moderate: lesion score [2, 6]: 2.4 ± 0.5
Inflammation, neutrophil, lymphocyte and mast cell, epidermis, dermis and subcutis, minimal to severe/high: lesion score [2, 6]: 3.8 ± 0.4
Necrosis, epidermis, slight: lesion score [2, 6]: 0.4 ± 0.9
Serocellular crust/parakeratosis, epidermis, slight: lesion score [2, 6]: 2.0 ± 0.0
Vacuolization, epidermis, minimal to slight: lesion score [2, 6]: 0.8 ± 0.4
Cumulative histological scores ([2]; Treatment (high-dose): DNCB+5% topical melatonin, mean±SD): 11.4 ± 1.1
Hyperplasia, epidermis and follicular epithelium, slight to moderate/severe: incidence [2, 7]: 5/5
Hyperplasia, sebaceous gland and hair follicle, dermis and subcutis, slight to moderate: incidence [2, 7]: 5/5
Inflammation, neutrophil, lymphocyte and mast cell, epidermis, dermis and subcutis, minimal to severe/high: incidence [2, 7]: 5/5
Infundibular hyperkeratosis, hair follicle, dermis, minimal to slight: incidence [2, 7]: 0
Necrosis, epidermis, slight: incidence [2, 7]: 1/5
Pustule, epidermis, slight: incidence [2, 7]: 0
Serocellular crust/parakeratosis, epidermis, slight: incidence [2, 7]: 5/5
Vacuolization, epidermis, minimal to slight: incidence [2, 7]: 4/5
Hyperplasia, epidermis and follicular epithelium, slight to moderate/severe: lesion score [2, 8]: 2.4 ± 0.5
Hyperplasia, sebaceous gland and hair follicle, dermis and subcutis, slight to moderate: lesion score [2, 8]: 2.0 ± 0.0
Inflammation, neutrophil, lymphocyte and mast cell, epidermis, dermis and subcutis, minimal to severe/high: lesion score [2, 8]: 3.8 ± 0.4
Infundibular hyperkeratosis, hair follicle, dermis, minimal to slight: lesion score [2, 8]: 0.8 ± 0.8
Serocellular crust/parakeratosis, epidermis, slight: lesion score [2, 8]: 2.0 ± 0.0
Vacuolization, epidermis, minimal to slight: lesion score [2, 8]: 0.6 ± 0.5
Cumulative histological scores ([2]; Treatment (low-dose): DNCB+3% topical melatonin, mean±SD): 11.6 ± 1.8
Hyperplasia, epidermis and follicular epithelium, slight to moderate/severe: incidence [2, 9]: 5/5
Hyperplasia, sebaceous gland and hair follicle, dermis and subcutis, slight to moderate: incidence [2, 9]: 5/5
Inflammation, neutrophil, lymphocyte and mast cell, epidermis, dermis and subcutis, minimal to severe/high: incidence [2, 9]: 5/5
Infundibular hyperkeratosis, hair follicle, dermis, minimal to slight: incidence [2, 9]: 3/5
Necrosis, epidermis, slight: incidence [2, 9]: 0
Pustule, epidermis, slight: incidence [2, 9]: 0
Serocellular crust/parakeratosis, epidermis, slight: incidence [2, 9]: 5/5
Vacuolization, epidermis, minimal to slight: incidence [2, 9]: 3/5
mast cell infiltration (toluidine blue) ([2]; after melatonin treatment, FIG. 8): decreased
H&E staining of the skin ([2]; both the 3% and 5% melatonin treatment group, FIG. 6): improved epidermal hyperplasia and less infiltration of lymphocytes
skin mRNA expression of IL-4, dose-response [3, 10]: decreased more
skin mRNA expression of IL-4 ([3]; after topical melatonin treatment (3% or 5%), FIG. 11A): decreased
skin mRNA expression of IL-17, dose-response [4, 10]: decreased more
skin mRNA expression of IL-17 ([4]; after topical melatonin treatment (3% or 5%), FIG. 11B): decreased
serum total IgE levels ([5]; 8% topical melatonin treatment, FIG. 15): lowered the total serum IgE most
serum total IgE levels ([5]; after topical melatonin treatment (0.1%, 1%, 8%), dose-response relationship, FIG. 15, Day 15): reduced
